# Laboratory results: patent US20140039044A1, “Hydroxylated Polymethoxyflavone Compositions” (WLLGEN, INC., priority 2006, published 2014)
# Where two headings read alike, the source gives them in different places.
# What was measured:
# Type in all cases: cell-based, human
# COLO205 cells [1] = assay: Cell survival assay (antiproliferative IC50); conditions: Homo sapiens
# Experimental: (§1) Human colon carcinoma COLO205 and HT-29 cell lines (American Type Culture Collection (ATTC), Manassas, Va.) and the leukemia cell line HL-60 were maintained at 37° C. in 5% CO2 air in RPMI 1640 medium supplemented with 10% heat-inactivated fetal bovine serum (Gibco BRL, Grand Island, N.Y.), 100 units/mL penicillin, 100 μg/mL streptomycin and 2 mM 1-glutamine. The human gastric carcinoma AGS cell line (CCRC 60102), obtained from the Food Industry Research and Development Institute (Hsinchu, Taiwan), was maintained as described above, except that DMEM/F 12 was used as the medium rather than the RPMI 1640 medium. The human breast carcinoma MCF-7 cell line MCF-7 (ATTC) was cultured in RPMI 1640 medium supplemented with 5% fetal calf serum at 37° C. in a humidified atmosphere of 5% CO2 in air. The mouse macrophage cell line RAW 264.7 was maintained in RPMI 1640 supplemented with 100 U/ml penicillin, 100 μg/ml streptomycin, and 10% heat-inactivated fetal calf serum.
# (§2) Cancer cells (2×10^5) were plated in 12-well Petri dishes. The next day, the medium was changed and treated with different concentration of the test compounds or compositions for 24 h. Where individual compounds were to be tested, stock solutions of the compound was prepared to contain 200 μM of the individual hydroxylated or non-hydroxylated PMF in dimethylsulfoxide (DMSO). Control cells were treated with DMSO to a final concentration of 0.05% (v/v). Depending on the objective of the particular experiment, cells were treating with test compound or composition for 1, 3 or 6 days. At the end of incubation, cells were harvested for cell count using a hemocytometer and measuring the cellular total nucleic acid content with the CyQUANT Cell Proliferation Assay Kit (Molecular Probes).
# (§3) 1 N PMF and 6 N PMF compositions containing hydroxylated PMFs, prepared as described in Section 8.3 above, 70% PMF OPE and 5,6,7,8,3′,4′-hexamethoxyflavone (nobiletin) were tested for antiproliferative activity and apoptosis-inducing activity in HL-60, AGS and COLO205 cells as described in Section 8.4 above. Antiproliferative and apoptosis-inducing activities were derived as IC50 values and AC50, values, respectively, where AC50 is the concentration required for 50% apoptosis.
# (§4) The PMF compounds were assayed in vitro for cell growth inhibition and for their ability to induce apoptosis in various human cancer cells, including HL-60, AGS, COLO 205, and HT-29 cells, using methods described in Section 8.4 above. Antiproliferative (IC50) and apoptosis-inducing activity (AC50) of PMFs in the HL-60, AGS, COLO 205, and HT-29 cells are reported in Table 9, where *P<0.05, **P<0.01 and ***P<0.001 indicate statistically significant differences from the control group.
# AGS cells = assay: Cell survival assay (antiproliferative IC50); conditions: Homo sapiens, read-out: Antiproliferative IC50
# Experimental: as §1, §2, §3, §4
# HL-60 cells [2] = assay: Cell survival assay (antiproliferative IC50); conditions: Homo sapiens
# Experimental: as §1, §2, §3, §4
# COLO205 cells [3] = assay: Cell cycle distribution by flow cytometry; conditions: COLO205 cells, 24 h, Table 12
# Summary of the method: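 Human cancer cells (2×10^5 per dish) exposed 24 h to compound at 5–100 μM, or DMSO. Cells ethanol-fixed at −20° C overnight, RNase/Triton-treated at 37° C for 30 min, then stained with propidium iodide. DNA content read by FACScan flow cytometry to give phase distribution.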
# HT-29 cells = assay: Apoptotic ratio by propidium iodide flow cytometry (AC50); conditions: Homo sapiens, read-out: Apoptosis-inducing AC50
# Experimental: (§5) The human cancer cells (2×10^5) were cultured in 60-mm Petri dishes and incubated for 24 h. After treated with test compounds for 24 h, the cells were then harvested, washed with PBS resuspended in 200 μL of PBS, and fixed in 800 μL of iced 100% ethanol at −20° C. After being left to stand overnight, the cell pellets were collected by centrifugation, resuspended in 1 mL of hypotonic buffer (0.5% Triton X-100 in PBS and 0.5 μg/mL RNase) and incubated at 37° C. for 30 min. Next, 1 mL of propidium iodide solution (50 μg/mL) was added, and the mixture was allowed to stand on ice for 30 min. Fluorescence emitted from the propidium iodide-DNA complex was quantitated after excitation of the fluorescent dye by FACScan cytometry (Becton Dickinson, San Jose, Calif.).
# as §4
# HL-60 cells [4] = assay: Cell cycle distribution by flow cytometry; conditions: 24 h; for Cell Cycle Distribution G0/G1 / Cell Cycle Distribution G2/M / Cell Cycle Distribution S: Table 10
# Experimental: as §5
# The effects of the hydrolyzed PMF-enriched compositions, nobiletin and 70% PMF OPE on cell cycle distribution were studied, following the procedures described in Section 8.4. Results for cell cycle distribution in HL-60 cells, COLO205 cells and AGS cells are provided in Table 5, Table 6 and Table 7, respectively. […] In HL-60 cells, G2/M arrest predominated in cells treated with 6N PMF concentrations ≧5 μM and with 1N PMF concentrations ≧25 μM.
# Compounds A-K were evaluated in terms of their effects in arresting cell cycle progression by observing cell cycle phase distribution in cells treated with the compounds. Cells were treated with 5, 10, 25, 50, and 100 μM of one of compound A-K or DMSO (control) for 24 h and subjected to flow cytometric analysis after staining their DNA, as described above.
# [5] = COLO 205, COLO205 cells, read-out: Antiproliferative IC50
# [6] = HL-60 cells, read-out: Antiproliferative IC50
SMILES,Cell Cycle Distribution G0/G1 (COLO205 cells [3]; 5 μM),Cell Cycle Distribution G2/M (COLO205 cells [3]; 5 μM),Cell Cycle Distribution S (COLO205 cells [3]; 5 μM),Cell Cycle Distribution G0/G1 (COLO205 cells [3]; 10 μM),Cell Cycle Distribution G2/M (COLO205 cells [3]; 10 μM),Cell Cycle Distribution S (COLO205 cells [3]; 10 μM),Cell Cycle Distribution G0/G1 (COLO205 cells [3]; 25 μM),Cell Cycle Distribution G2/M (COLO205 cells [3]; 25 μM),Cell Cycle Distribution S (COLO205 cells [3]; 25 μM),Cell Cycle Distribution G0/G1 (COLO205 cells [3]; 50 μM),Cell Cycle Distribution G2/M (COLO205 cells [3]; 50 μM),Cell Cycle Distribution S (COLO205 cells [3]; 50 μM),Cell Cycle Distribution G0/G1 (COLO205 cells [3]; 100 μM),Cell Cycle Distribution G2/M (COLO205 cells [3]; 100 μM),Cell Cycle Distribution S (COLO205 cells [3]; 100 μM),AC50 (HT-29 cells) [µM],Cell Cycle Distribution G0/G1 (HL-60 cells [4]; 5 μM),Cell Cycle Distribution G2/M (HL-60 cells [4]; 5 μM),Cell Cycle Distribution S (HL-60 cells [4]; 5 μM),Cell Cycle Distribution G0/G1 (HL-60 cells [4]; 10 μM),other results
"COc1c(OC)c(OC)c2c(=O)cc(-c3ccc(O)c(O)c3)oc2c1OC [H, 3′,4′-dihydroxy-5,6,7,8-tetramethoxyflavone]",67.26 ± 0.45,8.17 ± 0.60,24.58 ± 0.15,66.67 ± 0.16,6.18 ± 0.63,27.16 ± 0.46,66.99 ± 1.32,6.89 ± 0.21,26.13 ± 1.11,64.49 ± 1.00,8.94 ± 1.12,26.57 ± 2.12,66.50 ± 0.06,6.98 ± 0.02,26.53 ± 0.08,> 100,49.78 ± 1.80,4.37 ± 5.00,45.85 ± 6.80,49.29 ± 1.53,"IC50 (COLO205 cells [1]; COLO 205, read-out: Antiproliferative IC50): 90.1 ± 11.9 µM; IC50 (AGS cells; AGS): 69.3 ± 4.23 µM; IC50 (HL-60 cells [2]; HL-60, read-out: Antiproliferative IC50): 71.2 ± 1.93 µM; Cell Cycle Distribution G2/M (HL-60 cells [4]; 10 μM): 2.76 ± 3.90; Cell Cycle Distribution S (HL-60 cells [4]; 10 μM): 47.95 ± 5.43; Cell Cycle Distribution G0/G1 (HL-60 cells [4]; 25 μM): 52.82 ± 0.15; Cell Cycle Distribution G2/M (HL-60 cells [4]; 25 μM): 5.49 ± 1.11; Cell Cycle Distribution S (HL-60 cells [4]; 25 μM): 41.68 ± 0.93; Cell Cycle Distribution G0/G1 (HL-60 cells [4]; 50 μM): 62.04 ± 1.19; Cell Cycle Distribution G2/M (HL-60 cells [4]; 50 μM): 10.70 ± 0.89; Cell Cycle Distribution S (HL-60 cells [4]; 50 μM): 27.27 ± 0.31; Cell Cycle Distribution G0/G1 (HL-60 cells [4]; 100 μM): 61.15 ± 7.03; Cell Cycle Distribution G2/M (HL-60 cells [4]; 100 μM): 25.94 ± 8.32; Cell Cycle Distribution S (HL-60 cells [4]; 100 μM): 12.91 ± 15.34; Cell cycle arrest, in words (HL-60 cells [4]; 25-100 μM): significant G1 arrest"
"COc1cc(-c2cc(=O)c3c(OC)c(OC)c(OC)c(OC)c3o2)ccc1O [Compound G, 4′-hydroxy-5,6,7,8,3′-pentamethoxyflavone]",67.93 ± 0.74,4.71 ± 0.18,27.36 ± 0.56,72.87 ± 2.37,4.51 ± 0.08,22.64 ± 2.28,73.74 ± 0.51,6.47 ± 0.93,19.80 ± 0.42,73.90 ± 0.41,8.17 ± 0.23,17.94 ± 0.17,73.05 ± 0.30,7.61 ± 0.46,19.35 ± 0.76,> 100,41.79 ± 0.80,4.80 ± 6.73,53.41 ± 5.93,43.26 ± 2.02,IC50 (COLO205 cells [1]; [5]): 83.7 ± 4.96 µM; IC50 (AGS cells; AGS cells): 70.5 ± 9.97 µM; IC50 (HL-60 cells [2]; [6]): 47.4 ± 3.64 µM; Cell Cycle Distribution G2/M (HL-60 cells [4]; 10 μM): 12.61 ± 0.11; Cell Cycle Distribution S (HL-60 cells [4]; 10 μM): 44.15 ± 2.12; Cell Cycle Distribution G0/G1 (HL-60 cells [4]; 25 μM): 55.71 ± 0.15; Cell Cycle Distribution G2/M (HL-60 cells [4]; 25 μM): 8.39 ± 0.16; Cell Cycle Distribution S (HL-60 cells [4]; 25 μM): 35.90 ± 0.01; Cell Cycle Distribution G0/G1 (HL-60 cells [4]; 50 μM): 52.35 ± 1.09; Cell Cycle Distribution G2/M (HL-60 cells [4]; 50 μM): 12.18 ± 3.83; Cell Cycle Distribution S (HL-60 cells [4]; 50 μM): 35.48 ± 4.91; Cell Cycle Distribution G0/G1 (HL-60 cells [4]; 100 μM): 65.44 ± 5.42; Cell Cycle Distribution G2/M (HL-60 cells [4]; 100 μM): 11.21 ± 8.27; Cell Cycle Distribution S (HL-60 cells [4]; 100 μM): 23.35 ± 13.67
"COc1ccc(-c2cc(=O)c3c(O)c(OC)c(OC)c(OC)c3o2)cc1OC [J, 5-hydroxy-6,7,8,3′,4′-pentamethoxyflavone]",56.75 ± 1.52,7.41 ± 0.30,35.85 ± 1.22,59.63 ± 0.88,7.07 ± 0.86,31.99 ± 1.85,63.97 ± 0.56,6.38 ± 1.05,29.65 ± 1.61,64.90 ± 1.44,6.41 ± 0.13,28.69 ± 1.57,62.39 ± 2.98,7.05 ± 0.13,30.57 ± 2.84,> 100,53.10 ± 0.46,7.94 ± 0.06,38.96 ± 0.51,51.74 ± 1.57,IC50 (COLO205 cells [1]; [5]): > 100 µM; IC50 (AGS cells; AGS cells): > 100 µM; IC50 (HL-60 cells [2]; [6]): > 100 µM; Cell Cycle Distribution G2/M (HL-60 cells [4]; 10 μM): 9.06 ± 0.54; Cell Cycle Distribution S (HL-60 cells [4]; 10 μM): 39.20 ± 2.10; Cell Cycle Distribution G0/G1 (HL-60 cells [4]; 25 μM): 51.30 ± 1.68; Cell Cycle Distribution G2/M (HL-60 cells [4]; 25 μM): 8.20 ± 1.19; Cell Cycle Distribution S (HL-60 cells [4]; 25 μM): 40.50 ± 2.87; Cell Cycle Distribution G0/G1 (HL-60 cells [4]; 50 μM): 49.22 ± 0.13; Cell Cycle Distribution G2/M (HL-60 cells [4]; 50 μM): 7.93 ± 0.36; Cell Cycle Distribution S (HL-60 cells [4]; 50 μM): 42.86 ± 0.48; Cell Cycle Distribution G0/G1 (HL-60 cells [4]; 100 μM): 51.29 ± 0.74; Cell Cycle Distribution G2/M (HL-60 cells [4]; 100 μM): 7.45 ± 0.83; Cell Cycle Distribution S (HL-60 cells [4]; 100 μM): 41.27 ± 0.09
